# Results as given in ChEMBL document CHEMBL1139932, “Structure-based organic synthesis of unnatural aeruginosin hybrids as potent inhibitors of thrombin” (Bioorg Med Chem Lett, 2007).
# Molecular target: Prothrombin (Homo sapiens, UniProt P00734)
# Experiment: Inhibition of thrombin
row,SMILES,IC50
1,CC[C@H](C)[C@@H](N)C(=O)N1[C@H](C(=O)NCc2ccc(C(=N)N)cc2)C[C@@H]2CCCC[C@@H]21,101 nM
2,CC(C)C[C@@H](NC(=O)[C@H](O)Cc1ccccc1)C(=O)N1[C@H](C(=O)NCCCCN=C(N)N)C[C@@H]2CCCC[C@@H]21,1500 nM
3,CC(C)C[C@@H](NC(=O)[C@H](O)Cc1ccccc1)C(=O)N1[C@H](C(=O)NCCCCN=C(N)N)C[C@@H]2CC[C@@H](O)C[C@@H]21,5600 nM
4,CC(C)[C@H](Cl)[C@@H](NC(=O)[C@H](O)Cc1ccccc1)C(=O)N1[C@H](C(=O)NCc2ccc(C(=N)N)cc2)C[C@@H]2CCCC[C@@H]21,1.6 nM
5,CC(C)C[C@@H](NC(=O)[C@H](O)Cc1ccccc1)C(=O)N1[C@H](C(=O)NCCC2=CCN(C(=N)N)C2)C[C@@H]2CC[C@@H](O)C[C@@H]21,220 nM
6,CC[C@H](C)[C@@H](NC(=O)[C@H](O)Cc1ccccc1)C(=O)N1[C@H](C(=O)NCc2ccc(C(=N)N)cc2)C[C@@H]2CCCC[C@@H]21,3.3 nM
7,CC[C@H](C)[C@@H](NC(C)=O)C(=O)N1[C@H](C(=O)NCc2ccc(C(=N)N)cc2)C[C@@H]2CCCC[C@@H]21,786 nM
8,CC(C)[C@H](Cl)[C@@H](NC(=O)[C@H](O)Cc1ccccc1)C(=O)N1[C@H](C(=O)NCCCCN=C(N)N)C[C@@H]2CC[C@@H](O)C[C@@H]21,310 nM
9,"CC[C@H](C)C(NC(=O)[C@@H](C)O)C(=O)N1[C@H](C(=O)NCc2ccc(C(=N)N)cc2)C[C@@H]2CCCC[C@@H]21 (single isomer, unassigned)",53 nM
10,CO[C@H](CO)C(=O)N[C@@H](C(=O)N1[C@H](C(=O)NCCC2=CCN(C(=N)N)C2)C[C@@H]2C[C@H](O)[C@@H](O)C[C@@H]21)[C@@H](Cl)C(C)C,11 nM
11,CC(C)C[C@@H](NC(=O)[C@H](O)Cc1ccccc1)C(=O)N1[C@H](C(=O)NCc2ccc(C(=N)N)cc2)C[C@@H]2CCCC[C@@H]21,97 nM
12,CC[C@@H](C)[C@@H](NC(=O)[C@H](O)Cc1ccccc1)C(=O)N1CCC[C@H]1C(=O)NCc1ccc(C(=N)N)cc1,7 nM
13,CC(C)C[C@@H](NC(=O)[C@H](O)Cc1ccccc1)C(=O)N1[C@H](C(=O)NCCC2=CCN(C(=N)N)C2)C[C@@H]2CCCC[C@@H]21,120 nM
14,N=C(N)c1ccc(CNC(=O)[C@@H]2C[C@@H]3CCCC[C@@H]3N2C(=O)C(NC(=O)[C@H](O)Cc2ccccc2)C2CCCCC2)cc1 (stereo partly specified),3.4 nM
15,CC[C@H](C)[C@@H](NC(=O)CCc1ccccc1)C(=O)N1[C@H](C(=O)NCc2ccc(C(=N)N)cc2)C[C@@H]2CCCC[C@@H]21,334 nM
16,"CC[C@H](C)C(NC(=O)OC(C)(C)C)C(=O)N1[C@H](C(=O)NCc2ccc(C(=N)N)cc2)C[C@@H]2CCCC[C@@H]21 (single isomer, unassigned)",171 nM
